Measurements from ChEMBL document CHEMBL1123951, “Triazolines. 14. 1,2,3-Triazolines and triazoles, a new class of anticonvulsants. Drug design and structure-activity relationships” (J Med Chem, 1988).

Legend:
[1] = Protective index (Pi) was measured as the ratio of TD50/ED50 value in MES test; assay type: ADME
[2] = species on record: Mus musculus; assay: Neurological deficit in mouse measured by rotarod test; assay type: functional
[3] = species on record: Mus musculus; assay: Anticonvulsant activity in mice, measured by maximal electroshock seizure (MES) test.; assay type: functional
[4] = system: Mus musculus; assay: Anticonvulsant activity in mice, measured by subcutaneous pentylenetetrazole seizure (scMet) test.; assay type: functional; settings: sc
[5] = Protective index (PI), anticonvulsant activity, ratio of TD50/ED50 value in maximal electroconvulsive shock seizure (MES) test; assay type: ADME, organism-based; settings: mouse, in vivo
[6] = Protective index (PI),anticonvulsant activity, ratio of TD50/ED50 value in scMet test; assay type: ADME, organism-based; settings: mouse, in vivo

SMILES | selectivity ratio [1] | TD50 [2] [mg/kg] | ED50 [3] [mg/kg] | ED50 [4] [mg/kg] | selectivity ratio [5] | selectivity ratio [6]
COc1ccc(-n2nncc2-c2ccncc2)cc1 | 1.75 | 545 | 311 |  |  | 
FC(F)(F)c1ccc(N2N=NCC2c2ccncc2)cc1 (configuration not stated) |  | > 2000 | 689 | 421 | > 2.9 | > 4.8
Brc1ccc(-n2nncc2-c2cccnc2)cc1 |  | 496 | 87.2 | 40.6 | 5.7 | 12.2
c1ccc(-n2nncc2-c2ccccn2)cc1 |  | 87.9 | 41.1 | 25.6 | 2.1 | 3.4
Fc1ccc(-n2nncc2-c2ccncc2)cc1 |  | 181 | 91.6 | 119 | 2 | 1.5
c1ccc(-n2nncc2-c2cccnc2)cc1 |  | 133 | 76.4 | 39.7 | 1.7 | 3.3
Fc1ccc(N2N=NCC2c2ccncc2)cc1 (configuration not stated) |  | 586 | 239 | 203 | 2.5 | 2.9
Clc1ccc(-n2nncc2-c2ccccn2)cc1 |  | 234 | 95.2 | 50.4 | 2.5 | 4.6
FC(F)(F)c1cccc(N2N=NCC2c2ccncc2)c1 (configuration not stated) |  | 137 | 52.1 | 51 | 2.63 | 2.69
Clc1cccc(-n2nncc2-c2ccncc2)c1 |  | 68.7 | 38 | 29.2 | 1.8 | 2.4
FC(F)(F)c1cccc(-n2nncc2-c2ccncc2)c1 |  | 68 | 68.2 | 44.7 | 0.99 | 1.52
Clc1ccc(-n2nncc2-c2ccccc2)cc1 |  | 466 | 233 | 95.2 | 2 | 4.9
Clc1ccc(-n2nncc2-c2cccnc2)cc1 |  | 245 | 65.8 | 26.9 | 3.7 | 9.1
FC(F)(F)c1ccc(-n2nncc2-c2cccnc2)cc1 |  | 379 | 92.3 | 90.5 | 4.1 | 4.2
c1ccc(-n2nncc2-c2ccncc2)cc1 |  | 157 | 78.8 | 73.7 | 2 | 2.1
Fc1ccc(-n2nncc2-c2cccnc2)cc1 |  | 168 | 74.6 | 47.9 | 2.5 | 3.5
Clc1ccc(N2N=NCC2c2ccncc2)cc1 (configuration not stated) |  | 1130 | 257 |  | 4.4 | 26
Fc1ccc(-n2nncc2-c2ccccn2)cc1F |  | 123 | 62.5 | 123 | 3.1 | 1.6
Brc1ccc(-n2nncc2-c2ccccn2)cc1 |  | 265 | 68 | 88.6 | 3.9 | 3
c1ccc(N2N=NCC2c2ccncc2)cc1 (configuration not stated) |  | 590 | 165 | 107 | 3.6 | 5.6
CCC1(C)CC(=O)NC1=O (configuration not stated) [ETHOSUXIMIDE] |  | 441 |  | 130 |  | 
CCC1(c2ccccc2)C(=O)NC(=O)NC1=O [PHENOBARBITAL] |  | 69 |  |  |  | 
CCCC(CCC)C(=O)O [VALPROIC ACID] |  |  | 272 | 149 |  | 
